Laboratory results: PubChem BioAssay AID602267 (Broad Institute, 2012)
Calls of active or inactive are those of the source.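 The calls were made as follows: active = signal falls with dose and the fitted half-maximal concentration is at or below twice the top valid tested dose; inconclusive = flat curve with 30 to 70% inhibition, or poor fit; inactive = wrong direction, flat within 30%, or potency beyond limit.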

Target: Golgi-associated PDZ and coiled-coil motif-containing protein (Homo sapiens) (UniProt Q9HD26)
Experiment: CAL PDZ domain peptide-binding inhibitors, dose response, biochemical, fluorescence polarization, untagged CAL PDZ, cherry-pick (AID 602267);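 as to activity change, negative = inhibition: 0% = DMSO neutral wells and -100% = excess unlabeled competitor peptide wells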
Settings: purified CAL PDZ, TMR-peptide fluorescence polarization, 1 h

Row | Compound | AC50 [µM]
1 | CCOc1ccc(S(=O)(=O)Nc2cc(SCC(=O)O)c(O)c3ccccc23)cc1 | 39
2 | O=C(O)CSc1cc(NS(=O)(=O)c2ccc(Br)cc2)c2ccccc2c1O | 29.7

Same assay, conditions: purified CAL PDZ, TMR-peptide fluorescence polarization, 1 h; at 16 µM (top of the series)

Row | Compound | activity change, negative = inhibition
3 | CCOC(=O)C1(Cc2cccc(Cl)c2)CCCN(C(=O)c2cccc(C)n2)C1 (centres undefined) | inactive
4 | COc1cc(C2NC(=O)NC(C)=C2C(=O)OC2CCCCC2)cc(Br)c1O (centres undefined) | inactive
5 | O=C(OCC(=O)N1CCOCC1)c1ccc[nH]c1=O | inactive
6 | O=c1[nH]c(CN2CC=C(c3ccccc3)CC2)nc2scc(-c3ccccc3)c12 | inactive
7 | COc1cccc(NC(=O)N2CCCCCC2)c1 | inactive
8 | c1ccc(C2Nc3ccccc3Oc3ccccc32)cc1 (centres undefined) | inactive

Same assay, conditions: purified CAL PDZ, TMR-peptide fluorescence polarization, 1 h; at 50 µM (top of the series)

Row | Compound | activity change, negative = inhibition
9 | O=C(O)c1[nH]c2ccccc2c1C(c1ccccc1)c1c(C(=O)O)[nH]c2ccccc12 | inactive
10 | COC(=O)CN1C(=O)C(O)=C(C(C)=O)C1c1ccc([N+](=O)[O-])cc1 (centres undefined) | inactive
11 | O=C1c2ccccc2C(=O)N1CSc1nnnn1-c1ccccc1 | inactive
12 | C(=C/c1nccc2c1[nH]c1ccccc12)/c1ccc2c(c1)OCO2 | inactive
13 | O=C1OC(c2ccccc2)(c2ccccc2)c2ccccc21 | inactive
14 | C=CCOC(=O)C1=C(C)Nc2nc3ccccc3n2C1c1ccncc1 (centres undefined) | inactive
15 | CC(CN1CCCC1)OC(=O)C(c1ccccc1)c1ccccc1 (centres undefined) | inactive
16 | Cc1ccc(NC(=O)CN(C)C(=S)NC2CC2)cc1 | inactive
17 | CC1CCCN(C(=O)Cc2cccc3ccccc23)C1 (centres undefined) | inactive
18 | COc1cc(OC)cc(C(=O)N[C@H](C(=O)Nc2nc3ccc(S(C)(=O)=O)cc3s2)C(C)C)c1 | inactive
19 | C/C(=N/N1CCN(c2ccccn2)CC1)c1ccc([N+](=O)[O-])cc1 | inactive
20 | COc1ccc(/C=N/Nc2cc(C)nc3ccc(OC)cc23)c(OC)c1 | inactive
21 | Cc1ccc(C(=O)Nc2ccccc2)cc1S(=O)(=O)N1CCN(C)CC1 | inactive
22 | O=S(=O)(c1cccc2ccccc12)N1CCCCC1 | inactive
23 | COc1cc(S(=O)(=O)n2nc(C)cc2C)ccc1Cl | inactive
24 | CCOc1ccccc1N(CC(=O)Nc1cccc2ccccc12)S(C)(=O)=O | inactive
25 | CCC(=O)c1ccc(N2CCC(C)CC2)c(F)c1 | inactive
26 | CCN1C(=O)CS/C1=N\S(=O)(=O)c1ccc(Cl)cc1 | inactive
27 | CN(C)c1ccc(C(=O)OCC(=O)NC2CCCCCC2)cc1 | inactive
28 | Cc1ccc(C(=O)NC(=S)N2CCN(c3cc(C)ccc3C)CC2)cc1 | inactive
29 | COCCN(Cc1nc(C(c2ccccc2)c2ccccc2)no1)C(C)C | inactive
30 | Cc1cc(SCC(=O)OCC(=O)c2c(N)n(C)c(=O)n(C)c2=O)c(C)cc1Br | inactive

Row | Compound | activity change, negative = inhibition
31 | CS(=O)(=O)N(CC(=O)N1CCOCC1)c1cccc(F)c1 | inactive
32 | O=C(COC(=O)c1ccccc1C(=O)N1CCN(c2ccccc2)CC1)NCc1ccccc1 | inactive
33 | CCOC(=O)CCNC(=O)N1CCCC(CNS(=O)(=O)Cc2ccccc2)C1 (centres undefined) | inactive
34 | O=C(c1ccccc1)C(CCc1ccccn1)CCc1ccccn1 | inactive
35 | COc1ccc(C(=O)N2CCCc3ccccc32)cc1Br | inactive
36 | O=C(NNC(=O)c1c(F)cccc1F)c1sccc1-n1cccc1 | inactive
37 | CCOC(=O)C1(CCOc2ccccc2)CCN(CC(O)CO)CC1 (centres undefined) | inactive
38 | CC(=O)Nc1cccc(NC(=O)CSc2nnc(NC(=O)c3ccco3)s2)c1 | inactive
39 | CCNC(=S)N1CCc2cc(OC)c(OC)cc2C1COc1ccc(OC)cc1 (centres undefined) | inactive
40 | N=c1c(S(=O)(=O)c2ccc(Cl)cc2)cc2c(=O)n3ccccc3nc2n1C1CCCCC1 | inactive
41 | Cc1cc(NC(=O)Cc2ccc(Br)cc2)no1 | inactive
42 | CC(c1ccccc1)N1CCN(C(=O)CCl)CC1 (centres undefined) | inactive
43 | C=CCNC(=S)Nc1ccc(C)c(S(=O)(=O)N2CCCCC2)c1 | inactive
44 | O=C(NC(Cc1c[nH]c2ccccc12)C(=O)O)/C(=C/c1ccc(F)cc1)NC(=O)c1ccccc1 (centres undefined) | inactive
45 | CCN(CC(=O)Nc1cc(Cl)cc(Cl)c1)CC(=O)NC1CCS(=O)(=O)C1 (centres undefined) | inactive
46 | O=C1CC(c2ccccc2)=C(c2ccccc2)C1 | inactive
47 | O=[N+]([O-])c1ccccc1S(=O)(=O)NC1CCCCCCC1 | inactive
48 | CCN(CC)S(=O)(=O)c1ccc2nc(NC(=O)c3ccco3)sc2c1 | inactive
49 | COc1cc(C(=O)ON=C2C(C)=CC(=O)C=C2C)cc(OC)c1OC | inactive
50 | COC(=O)c1ccc(CNC(=O)COC(=O)c2cc(Cl)nc(Cl)c2)cc1 | inactive
51 | CN(C(=O)CC1C(=O)NCCN1CC(c1ccccc1)c1ccccc1)C(C1CC1)C1CC1 (centres undefined) | inactive
52 | O=C(NCCc1ccccc1)C1CCC(=O)N(CCCN2CCCC2=O)C1 (centres undefined) | inactive

Row | Compound | activity change, negative = inhibition
53 | CC(NS(=O)(=O)c1ccc(Cl)c(Cl)c1)C(=O)OCC(=O)Nc1ccc2c(c1)OCO2 (centres undefined) | inactive
54 | COc1ccc(S(=O)(=O)N2CCOCC2)cc1NC(=O)CN1CCCCCC1 | inactive
55 | COc1ccc(CC(=O)NNC(=O)CCc2ccccc2)cc1OC | inactive
56 | O=C(NCc1ccccn1)Nc1ccc(F)c(Cl)c1 | inactive
57 | Cc1ccc(C)c(N(CC(=O)NC(C)(C)C)C(=O)CCC(=O)Nc2nccs2)c1 | inactive
58 | CN(C)S(=O)(=O)c1ccc(Cl)c(NC(=O)CSc2nnnn2-c2ccc(O)cc2)c1 | inactive
59 | Cc1ccc(CN(Cc2cccnc2)C(=S)Nc2cccc(Cl)c2C)cc1 | inactive
60 | NC(=O)c1cc2ccccc2o/c1=N\NC(=O)c1ccncc1 | inactive
61 | CC1=NN(C(N)=S)C(=O)C1N=Nc1ccc(Cl)cc1 (centres undefined) | inactive
62 | COC(=O)C(C(=O)OC)c1ccc(N)cc1 | inactive
63 | OC(c1ccccc1)(c1ccccc1)c1nccc2ccccc12 | inactive
64 | CC(C)OC(=O)C1CC(C)(O)C(=O)C(C(=O)OC(C)C)C1c1ccc([N+](=O)[O-])cc1 (centres undefined) | inactive
65 | CC(=O)N1N=C(c2ccccc2)CC1c1ccccc1 (centres undefined) | inactive
66 | Cc1ccc2cc(C#N)c(N3CCCN(S(=O)(=O)c4ccccc4)CC3)nc2c1 | inactive
67 | Brc1cccc(CNCC2CCCO2)c1 (centres undefined) | inactive
68 | Cc1nn2c3ccccc3nc2c2ccccc12 | inactive
69 | COc1ccc(CC(=O)NCC2CCCN(Cc3cccc(SC)c3)C2)cc1 (centres undefined) | inactive
70 | COc1ccccc1Oc1coc2cc(OC(=O)N3CCOCC3)ccc2c1=O | inactive
71 | O=C(NCCc1cnc[nH]1)c1cccs1 | inactive
72 | COc1ccc(CCn2c(=S)[nH]c3ccc(N4CCOCC4)cc3c2=O)cc1OC | inactive
73 | O=C(Oc1c(CN2CCOCC2)cc(Cl)c2cccnc12)c1ccc(F)cc1 | inactive
74 | CC(C)=Cc1oc2ccc([N+](=O)[O-])cc2c1N1CCOCC1 | inactive

Row | Compound | activity change, negative = inhibition
75 | COc1ccc(CNCCc2c[nH]c3ccccc23)c(OC)c1OC | inactive
76 | COc1ccc(C(CNC(=O)COc2ccccc2-c2ccccc2)N2CCOCC2)cc1 (centres undefined) | inactive
77 | O=C(NC12CC3CC(CC(C3)C1)C2)c1ccco1 | inactive
78 | O=C(CSc1nc2c(sc3ccccc32)c(=O)n1Cc1ccccc1)NCC1CCCO1 (centres undefined) | inactive
79 | CSc1ccccc1NC(=O)C1CC(c2c(F)cccc2Cl)=NO1 (centres undefined) | inactive
80 | Cc1ccc(S(=O)(=O)N2CCN(C(=O)c3ccccn3)CC2)cc1 | inactive
81 | CC(C)CNC(=O)COC(=O)CCC(=O)c1ccc(Cl)cc1 | inactive
82 | CCC(=O)N1CCC(C(N)=O)(N2CCCCC2)CC1 | inactive
83 | Cc1cc(C)c(C(=O)N2CCC3(CC2)OCCO3)c(C)c1 | inactive
84 | Cc1ccc(/C=N/NC(=O)NN(C)c2ncc(C(F)(F)F)cc2Cl)cc1 | inactive
85 | COc1cc([N+](=O)[O-])ccc1NC(=O)CN1CCN(C(=O)c2ccco2)CC1 | inactive
86 | Cc1ccnc(SCC(=O)N2CCC(C(N)=O)CC2)n1 | inactive
87 | COc1cc(NC(=O)c2cccs2)ccc1NC(=O)c1ccccc1Cl | inactive
88 | COc1ccc(CSc2ncnc3sccc23)cc1F | inactive
89 | CC(=O)NC(Cc1ccccc1)C(C)=O (centres undefined) | inactive
90 | CC(C)OCCCNC(=O)C1CC(=O)N(CCc2ccc(F)cc2)C1 (centres undefined) | inactive
91 | CCCc1cc2c(cc1NC(=O)c1ccco1)OCO2 | inactive
92 | CCc1ccc(C2CC(=O)N(c3cccc(F)c3)C3=C2C(=O)OC3)cc1 (centres undefined) | inactive
93 | O=C(c1cccc(Oc2c(Cl)cccc2[N+](=O)[O-])c1)N1CCOCC1 | inactive
94 | C=CCn1c(NC(=O)c2ccco2)nc2ccccc21 | inactive
